Results reported in patent US20080090254A1, “Method for assessing proliferation inhibiting effect of inhibitor, and method for determining sensitivity of tumor cell to inhibitor” (SYSMEX CORPORATION, priority 2006, published 2008).

Key:
[1] = system: MDA-MB468; assay: cell proliferation, CellTiter-Glo Luminescent Cell Viability Assay; assay type: cell-based; conditions: cultured 3 days
Description: (§1) Cells were seeded on each well of a plate for culturing (96 Well Solid White Flat Bottom Polystyrene TC-Treated Microplates, Corning) at 1000 cells per well, and cultured at 37° C. for 24 hours. After culturing, an inhibitor was added to each well, and cells were further cultured at 37° C. for 3 days. As cells, five kinds of cultured cells used in Example 1 (MDA-MB453, MDA-MB468, SKBr3, Hela and HT29) were used. As the inhibitor, five kinds of inhibitors used in Example 1 (PD153035, AG1478, 4557W, PDGF Receptor Tyrosine Kinase Inhibitor III and VEGF Receptor Tyrosine Kinase Inhibitor III) were used. In Table 1, the final concentration is a concentration when the inhibitor is added to a well, and is mixed with cells.
(§2) For measuring cell proliferation, CellTiter-Glo Luminescent Cell Viability Assay (Promega) was used. This is a reagent kit which can quantitate ATP derived from a cell having the metabolism activity in a medium to measure a viable cell. First, according to a protocol attached to the kit, a measurement reagent was prepared. The measurement reagent was added at 100 μl per well, and a culturing plate was stirred with a shaker for 2 minutes. After stirring, the plate was allowed to stand for 10 minutes, and […] was measured using GENios (TECAN). Since […] is generated in proportion with an amount of ATP derived from a cell having the metabolism activity in a medium, a viable cell in a medium can be measured by measuring […].
(§3) Based on the measurement result, radar charts of FIG. 4 were produced. FIG. 4 contains a radar chart in the case of use of MDA-MB453, a radar chart in the case of use of MDA-MB468, a radar chart in the case of use of SKBr3, a radar chart in the case of use of Hela, and a radar chart in the case of use of HT29. These radar charts show a proportion of a measured value obtained by treating a cell with an inhibitor, letting a measured value when a cell was not treated with an inhibitor to be 100%. In radar charts, 1 is the case where a cell was treated with PD153035, 2 is the case where a cell was treated with AG1478, 3 is the case where a cell was treated with 4557W, 4 is the case where a cell was treated with PDGF Receptor Tyrosine Kinase Inhibitor III, and 5 is the case where a cell was treated with VEGF Receptor Tyrosine Kinase Inhibitor III.

[2] = system: receptor tyrosine kinase group derived from a cell membrane of MDA-MB468; assay: activity of receptor tyrosine kinase group, sample for reaction MB468 (ELISA, GST-poly(Glu, Tyr) substrate); assay type: biochemical; conditions: for inhibition of the activity of the receptor tyrosine kinase group: Example 1, FIG. 3, treating solution containing 400 μM inhibitor, versus sample not treated = 100%; for effect of inhibiting the activity of a receptor tyrosine kinase group, inhibitor combined with 4557W: Example 2, FIG. 6, 400 μM inhibitor combined with 400 μM 4557W; for effect of inhibiting the activity of a receptor tyrosine kinase group, inhibitor alone: Example 2, FIG. 6, treating solution containing 400 μM inhibitor alone
Description: (§4) From five kinds of cultured cells (MDA-MB453, MDA-MB468, SKBr3, Hela and HT29), a sample for reaction was prepared. Specifically, the cultured cell and 1 ml of a cell treating solution (containing 20 mM HEPES pH7.4, 0.2% PI, 10% glycerol, 200 μM Na3VO4, and 50 mM NaF) were mixed. By pressing using a pestle, a cell membrane of the resulting mixed solution was destructed to prepare a cell solution. The resulting cell solution was centrifuged, a supernatant was discarded, and a precipitate was recovered. The recovered precipitate and a cell membrane solubilizing solution (containing 20 mM HEPES pH7.4, 1% NP40, 0.2% PI, 10% glycerol, 200 μM Na3VO4, and 50 mM NaF) were mixed. A cell membrane in the mixed solution obtained by pressing using a pestle was solubilized, and centrifuged to recover a supernatant. This supernatant was used as a sample for reaction. MDA-MB453 is a cultured cell derived from a breast cancer, and a sample for reaction prepared from this cell is designated as sample for reaction MB453. MDA-MB468 is a cultured cell derived from a breast cancer, and a sample for reaction prepared from this cell is designated as sample for reaction MB468. SKBr3 is a cultured cell derived from a breast cancer, and a sample for reaction prepared from this cell is designated as sample for reaction SKBr3. Hela is a cultured cell derived from a uterine cervical cancer, and a sample for reaction prepared from this cell is designated sample for reaction Hela. HT29 is a cultured cell derived from a large intestine cancer, and a sample for reaction prepared from this cell is designated sample for reaction HT29.
As a plate for ELISA, a glutathione-coated plate (Reacti-Bind Clear Glutathione Coated Plates, 8-well Strip (PIERCE)) was used. First, each well of the plate was washed with TBS-T (containing 25 mM Tris, 150 mM NaCl and 0.05% Tween 20) three times. Then, into each well was placed 50 μl of the substrate solution 1 containing the GST-poly (Glu, Tyr) substrate prepared in the 1 (TBS containing 5 μg/ml GST-poly (Glu, Tyr) substrate), and this was incubated at 25° C. for 1 hour while slightly shaken. After incubation, each well was washed with TBS-T two times. Further, each well was washed with 20 mM HEPES pH7.4 (containing 0.05% Tween 20) once. Like this, the GST-poly (Glu, Tyr) substrate was bound to a surface of a well of the plate for ELISA. This plate for ELISA was used in the following enzyme reaction.
First, 25 μl of the sample for reaction MB453 was dispensed into 6 tubes, respectively. Among 6 tubes, to the first tube was added 25 μl of a treating solution containing 400 μM (20 mM HEPES pH7.4, 20 mM MnCl2, 2 mM DTT, 1% NP40, 10% glycerol, 200 μM Na3VO4, 50 mM NaF, 400 μM ATP). To the second tube was added 25 μl of a treating solution containing 400 μM AG1478. To the third tube was added 25 μl of a treating solution containing 400 μM 4557W. To the fourth tube was added 25 μl of a treating solution containing 400 μM PDGF Receptor Tyrosine Kinase Inhibitor III. To the fifth tube was added 25 μl of a treating solution containing 400 μM VEGF Receptor Tyrosine Kinase Inhibitor III. To the sixth tube was added 25 μl of a treating solution containing no inhibitor. The thus obtained solutions are used as a reaction solution. Similarly, using the sample for reaction MB468, the sample for reaction SKBr3, the sample for reaction Hela and the sample for reaction HT29, samples for reaction were prepared. In order to suppress the enzyme activity of receptor tyrosine kinase, this working was performed under the condition of not higher than 4° C.
Fifty microliter of each reaction solution was placed into separate wells of the plate for ELISA, and this was incubated at 25° C. for about 30 minutes. After incubation, 100 μl of a reaction stopping solution (TBS-T containing 1 mM EDTA) was added to each well, followed by further washing with TBS-T three times. Then, each well was washed with 300 μl of StartingBlock T20 (TBS) Blocking Buffer (PIERCE). […]

[3] = system: MDA-MB468 tumor; assay: proliferation of tumor cell in a mouse body (tumor volume); assay type: in vivo; conditions: Comparative Example 2, FIG. 5; BALB/c nu/nu mouse with MDA-MB468 tumor; 30 mg/kg/day injected for 7 days; compared with DMSO
Description: MDA-MB468 used in Example 1 was cultured in a culturing solution (DMEM-F12 (Sigma) containing 10% FBS (Hyclone)) so that it became 60% confluent in a 225 cm^2 flask. The resulting cultured cells were suspended to about 1×10^7 in 100 μl of DMEM-F12, to prepare a MDA-MB468 cell solution.
A fat pad of a 10-week old female mouse (BALB/c nu/nu) was injected with 100 μl of the MDA-MB468 cell solution. After 14 days, it was confirmed that a tumor became large in a mouse body. Like this, a tumor was formed in three mice bodies.
Fourteen days after injection with the MDA-MB468 cell solution, a mouse in which a tumor had been generated was injected with an inhibitor solution. Specifically, AG1478 used in Example 1 was dissolved in 100 μl of dimethyl sulfoxide (DMSO, Sigma) to prepare an inhibitor solution 1. And, the inhibitor solution 1 was injected into a mouse to a dose of the inhibitor of 30 mg/kg/day. […]
The day when the mouse was first injected with an inhibitor solution was regarded as the first day after injection. And, on the first day, the third day, the fifth day, and the eighth day after injection, a volume of a tumor in a mouse body was measured. As a volume of a tumor, a long diameter and a short diameter of a tumor were measured, and a volume was calculated from a long diameter and a short diameter on the assumption that a shape of a tumor was an elliptic sphere.

[4] = system: HT29; assay: cell proliferation, CellTiter-Glo Luminescent Cell Viability Assay; assay type: cell-based; conditions: Comparative Example 1, FIG. 4, final concentration 1 × 10^−5 M (Table 1), cultured 3 days
Description: as §1, §2, §3

[5] = system: MDA-MB453; assay: as above; assay type: cell-based; conditions: Comparative Example 1, FIG. 4, final concentration 1 × 10^−5 M (Table 1), cultured 3 days
Description: as §1, §2, §3

[6] = system: SKBr3; assay: as above; assay type: cell-based; conditions: Comparative Example 1, FIG. 4, final concentration 1 × 10^−5 M (Table 1), cultured 3 days
Description: as §1, §2, §3

[7] = system: receptor tyrosine kinase group derived from a cell membrane of HT29; assay: activity of receptor tyrosine kinase group, sample for reaction HT29 (ELISA, GST-poly(Glu, Tyr) substrate); assay type: biochemical; conditions: Example 1, FIG. 3, treating solution containing 400 μM inhibitor, versus sample not treated = 100%
Description: as §4, with “Hela is a cultured cell derived from a uterine cervical cancer, and a sample for reaction prepared from this cell is designated sample for reaction Hela. HT29 is a cultured cell derived from a large intestine cancer, and a sample for reaction prepared from this cell is designated sample for reaction HT29.” left out

[8] = system: receptor tyrosine kinase group derived from a cell membrane of MDA-MB453; assay: activity of receptor tyrosine kinase group, sample for reaction MB453 (ELISA, GST-poly(Glu, Tyr) substrate); assay type: biochemical; conditions: Example 1, FIG. 3, treating solution containing 400 μM inhibitor, versus sample not treated = 100%
Description: as §4, with “Hela is a cultured cell derived from a uterine cervical cancer, and a sample for reaction prepared from this cell is designated sample for reaction Hela. HT29 is a cultured cell derived from a large intestine cancer, and a sample for reaction prepared from this cell is designated sample for reaction HT29.” left out

[9] = system: receptor tyrosine kinase group derived from a cell membrane of SKBr3; assay: activity of receptor tyrosine kinase group, sample for reaction SKBr3 (ELISA, GST-poly(Glu, Tyr) substrate); assay type: biochemical; conditions: Example 1, FIG. 3, treating solution containing 400 μM inhibitor, versus sample not treated = 100%
Description: as §4, with “Hela is a cultured cell derived from a uterine cervical cancer, and a sample for reaction prepared from this cell is designated sample for reaction Hela. HT29 is a cultured cell derived from a large intestine cancer, and a sample for reaction prepared from this cell is designated sample for reaction HT29.” left out

[10] = Comparative Example 1, FIG. 4, final concentration 1 × 10^−6 M (Table 1)

| Structure (SMILES) | inhibition of proliferation [1, 10] | inhibition of the activity of the receptor tyrosine kinase group [2] | inhibition of proliferation of a tumor cell in a mouse body (change in volume of tumor) [3] | effect of inhibiting the activity of a receptor tyrosine kinase group, inhibitor combined with 4557W [2] | effect of inhibiting the activity of a receptor tyrosine kinase group, inhibitor alone [2] | other results |
| --- | --- | --- | --- | --- | --- | --- |
| COc1cc2ncnc(Nc3cccc(Br)c3)c2cc1OC [PD153035] | recognized | inhibited |  |  |  |  |
| COc1cc2ncnc(Nc3cccc(Cl)c3)c2cc1OC [AG1478] | recognized | inhibited | recognized |  |  |  |
| CCCNC(=O)Nc1ccc(Oc2ncnc3cc(OC)c(OC)cc23)cc1Cl |  |  |  | high activity inhibiting effect | little effect |  |
| COc1cc2ncnc(N3CCN(C(=O)Nc4ccc(Oc5ccccc5)cc4)CC3)c2cc1OC |  |  |  | high activity inhibiting effect | little effect |  |
| COc1cc2ncnc(Nc3ccc(OCc4ccccc4)cc3)c2cc1OC [4557W] |  | inhibited | recognized |  | highest activity inhibiting effect | inhibition of proliferation [4]: recognized; inhibition of proliferation ([1]; Comparative Example 1, FIG. 4, final concentration 1 × 10^−5 M (Table 1)): recognized; inhibition of proliferation [5]: recognized; inhibition of proliferation [6]: recognized; inhibition of the activity of the receptor tyrosine kinase group [7]: inhibited; inhibition of the activity of the receptor tyrosine kinase group [8]: inhibited; inhibition of the activity of the receptor tyrosine kinase group [9]: inhibited |
